For this assay, the target named is p70S6K(h) (Homo sapiens, UniProt P23443). In words: Enzyme Inhibition Assay (p70S6K(h)). In kind it is biochemical. The settings on record: at 0.3 μM concentration. The protocol: Enzyme Inhibition Assay (p70S6K(h))
In a final reaction volume of 25 uL, p70S6K(h) (5-10 mU) is incubated with 8 mM MOPS pH 7.0, 0.2 mM EDTA, 100 iM KKRNRTLTV, 10 mM MgAcetate and [gamma-33P-ATP] (specific activity approx. 500 cpm/pmol, concentration as required). The reaction is initiated by the addition of the MgATP mix. After incubation for 40 minutes at room temperature, the reaction is stopped by the addition of 5 uL of a 3% phosphoric acid solution. 10 uL of the reaction is then spotted onto a P30 filtermat and washed three times for 5 minutes in 75 mM phosphoric acid and once in methanol prior to drying and scintillation counting.

For orientation: inhibition means the change of the read-out against control, counted positive when it falls. Read a low inhibition as a response near the control.

p70S6K(h), sequence (P23443 whole entry): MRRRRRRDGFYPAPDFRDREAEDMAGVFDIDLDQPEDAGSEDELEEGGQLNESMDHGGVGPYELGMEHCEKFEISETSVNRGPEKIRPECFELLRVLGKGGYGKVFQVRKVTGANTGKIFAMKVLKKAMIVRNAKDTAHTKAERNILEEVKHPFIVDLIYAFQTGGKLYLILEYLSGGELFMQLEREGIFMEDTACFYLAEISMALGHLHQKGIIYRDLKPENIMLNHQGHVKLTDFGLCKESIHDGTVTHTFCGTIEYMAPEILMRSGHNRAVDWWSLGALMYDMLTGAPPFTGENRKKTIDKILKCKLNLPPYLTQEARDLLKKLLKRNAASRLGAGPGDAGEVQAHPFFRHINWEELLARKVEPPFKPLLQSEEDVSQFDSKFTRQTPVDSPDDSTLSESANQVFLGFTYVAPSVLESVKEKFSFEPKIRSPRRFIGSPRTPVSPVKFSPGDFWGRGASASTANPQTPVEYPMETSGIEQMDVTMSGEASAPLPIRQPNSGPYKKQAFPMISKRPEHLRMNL

Molecule `O=c1[nH]nc(Cl)c2cc(N3CCN(c4ccccc4)CC3)ccc12` [Example 126, 4-Chloro-6-(4-phenyl-piperazin-1-yl)-2H-phthalazin-1-one] returned an inhibition at 0.3 µM greater than 50%.
Under `O=c1[nH]nc(Cl)c2ccc(Nc3cccc(C(F)(F)F)c3)cc12` [Example 64, 4-Chloro-7-(3-trifluoromethyl-phenylamino)-2H-phthalazin-1-one] stands greater than 50%; under `O=c1[nH]nc(Cl)c2cc(NCc3cccc4c3OCCCO4)ccc12` [Example 107, 4-Chloro-6-[(3,4-dihydro-2H-benzo[b][1,4]dioxepin-6-ylmethyl)-amino]-2H-phthalazin-1-one], greater than 50%.
For `O=C(Nc1cccc(C(F)(F)F)c1)c1ccc2c(O)nnc(I)c2c1` [Example 42, 4-Iodo-1-hydroxy-phthalazine-6-carboxylic acid (3-trifluoromethyl-phenyl)-amide] the value was greater than 50%.
`Oc1nnc(Cl)c2cc(NCc3cccc(C(F)(F)F)c3)ccc12` [Example 24, 4-chloro-6-(3-trifluoromethyl-benzylamino)-phthalazin-1-ol] returned an inhibition at 0.3 µM greater than 50%.
Under `O=C(Nc1cccc(C(F)(F)F)c1)c1ccc2c(O)nnc(Cl)c2c1` [Example 26, 4-Chloro-1-hydroxy-phthalazine-6-carboxylic acid (3-trifluoromethyl-phenyl)-amide] stands greater than 50%.

Values taken from US8349836B2, “Phthalazine derivatives as inhibitors of protein kinase” (priority 2006, dated 2013).
